Legend:
PRKG1 = PRKG1 (Homo sapiens, UniProt Q13976); assay: KINOMEscan; type: binding; settings: 1 μM of compound 4; read-out: POC
TGFBR1 = target: T1, TGFBR1 (Homo sapiens, UniProt P36897); assay: KINOMEscan; type: binding; settings: 1 μM of compound 4; read-out: POC
T1 construct: purchased Eurofins DiscoverX Corporation

[1] = target: T2, RSK2(Kin.Dom.2-C-terminal) (Homo sapiens, UniProt P51812); assay: KINOMEscan; type: binding; settings: 1 μM of compound 4; read-out: POC
T2 construct: RSK2(Kin.Dom.2-C-terminal); purchased Eurofins DiscoverX Corporation (KINOMEscan screening service)

[2] = target: T3, EGFR L858R/T790M/C797S kinase domain (Homo sapiens, UniProt P00533, C797S/L858R/T790M); assay: HTRF-based activity assay; type: biochemical; settings: 100 μM ATP, enzyme 0.02 nM, read-out: Biochemical EGFR IC50, LRTMCS
T3 construct: The EGFR kinase domain (residues 696-1022) was cloned into pTriEx; 6xHis (N, cleaved yes); GST (N, cleaved yes); made in house; host or cells: SF9 insect cells (baculovirus)
Method: Protein expression and purification. The EGFR kinase domain (residues 696-1022) was cloned into pTriEx with an N-terminal 6×His-glutathione S-transferase (GST) fusion tag followed by a TEV protease cleavage site. EGFR WT, L858R, L858R/T790M, L858R/T790M/C797S was expressed after baculoviral infection in SF9 cells and EGFR(T790M/V948R) was expressed in SF21 cells. Briefly, cells were pelleted and resuspended in lysis buffer composed of 50 mM Tris pH 8.0, 500 mM NaCl, 1 mM tris(2-carboxyethyl)phosphine (TCEP), and 5% glycerol. Cells were lysed via sonication prior to ultracentrifugation at >200,000 g for 1 h. Imidazole pH 8.0 was added to the supernatant for a final concentration of 40 mM and flowed through a column containing Ni-NTA agarose beads. The resin was washed with lysis buffer supplemented with 40 mM imidazole and eluted with lysis buffer containing 200 mM imidazole. Eluted EGFR kinase domain was dialyzed overnight in the presence of 5% (w/w) TEV protease against dialysis buffer containing 50 mM Tris pH 8.0, 500 mM NaCl, 1 mM TCEP, and 5% glycerol. The cleaved protein was passed through Ni-NTA resin to remove the 6×His-GST fusion protein and TEV prior to size exclusion chromatography on a prep-grade Superdex S200 column in 50 mM Tris pH 8.0, 500 mM NaCl, 1 mM TCEP, and 5% glycerol.
HTRF Assays. Biochemical assays for EGFR domains were carried out using a homogeneous time-resolved fluorescence (HTRF) KinEASE-TK (Cisbio) assay, as described previously. Assays were optimized for ATP concentration of 100 μM with enzyme concentrations WT EGFR 10 nM, L858R 0.1 nM, L858R/T790M at 0.02 nM and L858R/T790M/C797S at 0.02 nM. Inhibitor compounds in DMSO were dispensed directly in 384-well plates with the D300 digital dispenser (Hewlett Packard) followed immediately by the addition of aqueous buffered solutions using the Multidrop Combi Reagent Dispenser (Thermo Fischer). […] The curves were fitted using a non-linear regression model with a sigmoidal dose response.

PLK1 = PLK1 (Homo sapiens, UniProt P53350); assay: KINOMEscan; type: binding; settings: 1 μM of compound 4; read-out: POC
CAMKK1 = CAMKK1 (Homo sapiens, UniProt Q8N5S9); assay: KINOMEscan; type: binding; settings: 1 μM of compound 4; read-out: POC
CSF1R = CSF1R (Homo sapiens, UniProt P07333); assay: KINOMEscan; type: binding; settings: 1 μM of compound 4; read-out: POC
MEK5 = MEK5 (Homo sapiens, UniProt Q13163); assay: KINOMEscan; type: binding; settings: 1 μM of compound 4; read-out: POC
CDK5 = CDK5 (Homo sapiens, UniProt Q00535); assay: KINOMEscan; type: binding; settings: 1 μM of compound 4; read-out: POC
YANK2 = target: T4, YANK2 (Homo sapiens, UniProt Q9NY57); assay: KINOMEscan; type: binding; settings: 1 μM of compound 4; read-out: POC
T4 construct: purchased Eurofins DiscoverX

AURKB = AURKB (Homo sapiens, UniProt Q96GD4); assay: KINOMEscan; type: binding; settings: 1 μM of compound 4; read-out: POC
MTOR = MTOR (Homo sapiens, UniProt P42345); assay: KINOMEscan; type: binding; settings: 1 μM of compound 4; read-out: POC
LATS2 = LATS2 (Homo sapiens, UniProt Q9NRM7); assay: KINOMEscan; type: binding; settings: 1 μM of compound 4; read-out: POC
p38-alpha = target: T5, p38-alpha (Homo sapiens, UniProt Q16539); assay: KINOMEscan; type: binding; settings: 1 μM of compound 4; read-out: POC
T5 construct: purchased Eurofins DiscoverX Corporation (KINOMEscan)

PLK3 = PLK3 (Homo sapiens, UniProt Q9H4B4); assay: KINOMEscan; type: binding; settings: 1 μM of compound 4; read-out: POC
CAMK2D = CAMK2D (Homo sapiens, UniProt Q13557); assay: KINOMEscan; type: binding; settings: 1 μM of compound 4; read-out: POC
BMX = BMX (Homo sapiens, UniProt P51813); assay: KINOMEscan; type: binding; settings: 1 μM of compound 4; read-out: POC
PKN1 = PKN1 (Homo sapiens, UniProt Q16512); assay: KINOMEscan; type: binding; settings: 1 μM of compound 4; read-out: POC
BRK = BRK (Homo sapiens, UniProt Q13882); assay: KINOMEscan; type: binding; settings: 1 μM of compound 4; read-out: POC
[3] = target: T6, ABL1(T315I)-phosphorylated (Homo sapiens, UniProt P00519, T315I); assay: KINOMEscan; type: binding; settings: 1 μM of compound 4; read-out: POC
T6 construct: purchased Eurofins DiscoverX Corporation

GSK3A = target: T7, GSK3A (Homo sapiens, UniProt P49840); assay: KINOMEscan; type: binding; settings: 1 μM of compound 4; read-out: POC
T7 construct: purchased Eurofins DiscoverX Corporation

ZAK = target: T8, ZAK (Homo sapiens, UniProt Q9NYL2); assay: KINOMEscan; type: binding; settings: 1 μM of compound 4; read-out: POC
T8 construct: purchased Eurofins DiscoverX

HASPIN = target: T9, HASPIN (Homo sapiens, UniProt Q8TF76); assay: KINOMEscan; type: binding; settings: 1 μM of compound 4; read-out: POC
T9 construct: purchased Eurofins DiscoverX Corporation

FGFR2 = target: T10, FGFR2 (Homo sapiens, UniProt P21802); assay: KINOMEscan; type: binding; settings: 1 μM of compound 4; read-out: POC
T10 construct: purchased Eurofins DiscoverX Corporation

CDC2L5 = CDC2L5 (Homo sapiens, UniProt Q14004); assay: KINOMEscan; type: binding; settings: 1 μM of compound 4; read-out: POC
CAMK1 = CAMK1 (Homo sapiens, UniProt Q14012); assay: KINOMEscan; type: binding; settings: 1 μM of compound 4; read-out: POC
Chain of CAMK1 (Q14012 whole entry): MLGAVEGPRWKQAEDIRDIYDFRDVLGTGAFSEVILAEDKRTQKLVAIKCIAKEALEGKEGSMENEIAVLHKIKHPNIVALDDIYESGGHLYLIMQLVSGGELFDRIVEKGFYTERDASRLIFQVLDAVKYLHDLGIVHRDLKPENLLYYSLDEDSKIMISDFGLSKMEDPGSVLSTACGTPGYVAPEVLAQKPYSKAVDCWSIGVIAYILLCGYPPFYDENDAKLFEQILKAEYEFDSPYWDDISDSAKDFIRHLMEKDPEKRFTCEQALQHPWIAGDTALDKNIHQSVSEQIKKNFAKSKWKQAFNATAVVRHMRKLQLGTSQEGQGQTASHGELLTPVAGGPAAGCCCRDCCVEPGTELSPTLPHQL

T8 sequence (Q9NYL2 whole entry): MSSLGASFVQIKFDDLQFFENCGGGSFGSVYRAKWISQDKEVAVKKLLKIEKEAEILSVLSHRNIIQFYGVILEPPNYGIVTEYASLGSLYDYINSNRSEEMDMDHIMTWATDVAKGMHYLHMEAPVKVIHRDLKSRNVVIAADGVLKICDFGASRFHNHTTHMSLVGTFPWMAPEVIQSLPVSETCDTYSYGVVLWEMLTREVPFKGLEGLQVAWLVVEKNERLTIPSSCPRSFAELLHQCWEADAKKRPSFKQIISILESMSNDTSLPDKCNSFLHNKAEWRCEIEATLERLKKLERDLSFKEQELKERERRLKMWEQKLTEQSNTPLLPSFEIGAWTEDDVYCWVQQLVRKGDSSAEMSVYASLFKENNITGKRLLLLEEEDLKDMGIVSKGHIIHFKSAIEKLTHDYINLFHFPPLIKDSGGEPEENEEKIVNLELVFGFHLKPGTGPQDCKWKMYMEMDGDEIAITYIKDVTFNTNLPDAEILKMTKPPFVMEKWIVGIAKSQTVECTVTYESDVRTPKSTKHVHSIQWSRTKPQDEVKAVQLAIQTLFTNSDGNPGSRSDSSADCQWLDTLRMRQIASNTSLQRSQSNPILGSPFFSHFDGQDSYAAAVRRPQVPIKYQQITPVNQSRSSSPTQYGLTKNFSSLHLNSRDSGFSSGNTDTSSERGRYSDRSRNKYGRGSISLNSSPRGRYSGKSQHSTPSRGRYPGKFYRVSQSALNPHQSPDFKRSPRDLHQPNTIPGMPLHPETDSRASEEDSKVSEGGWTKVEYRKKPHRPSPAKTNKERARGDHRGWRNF
Chain of CAMKK1 (Q8N5S9 whole entry): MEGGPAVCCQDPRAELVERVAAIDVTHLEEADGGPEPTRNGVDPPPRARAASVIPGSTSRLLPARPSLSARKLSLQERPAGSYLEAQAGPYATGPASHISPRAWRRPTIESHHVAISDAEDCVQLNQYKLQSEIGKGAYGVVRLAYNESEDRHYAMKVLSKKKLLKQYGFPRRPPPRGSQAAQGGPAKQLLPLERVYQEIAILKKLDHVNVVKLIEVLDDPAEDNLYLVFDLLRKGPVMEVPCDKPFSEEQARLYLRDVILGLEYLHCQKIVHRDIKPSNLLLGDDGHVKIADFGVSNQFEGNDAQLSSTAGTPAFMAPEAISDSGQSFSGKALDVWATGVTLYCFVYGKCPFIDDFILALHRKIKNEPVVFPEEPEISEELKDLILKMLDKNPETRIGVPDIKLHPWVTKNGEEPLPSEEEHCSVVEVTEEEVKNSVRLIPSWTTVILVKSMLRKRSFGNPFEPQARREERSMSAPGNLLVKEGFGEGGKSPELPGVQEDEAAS
Chain of PLK3 (Q9H4B4 whole entry): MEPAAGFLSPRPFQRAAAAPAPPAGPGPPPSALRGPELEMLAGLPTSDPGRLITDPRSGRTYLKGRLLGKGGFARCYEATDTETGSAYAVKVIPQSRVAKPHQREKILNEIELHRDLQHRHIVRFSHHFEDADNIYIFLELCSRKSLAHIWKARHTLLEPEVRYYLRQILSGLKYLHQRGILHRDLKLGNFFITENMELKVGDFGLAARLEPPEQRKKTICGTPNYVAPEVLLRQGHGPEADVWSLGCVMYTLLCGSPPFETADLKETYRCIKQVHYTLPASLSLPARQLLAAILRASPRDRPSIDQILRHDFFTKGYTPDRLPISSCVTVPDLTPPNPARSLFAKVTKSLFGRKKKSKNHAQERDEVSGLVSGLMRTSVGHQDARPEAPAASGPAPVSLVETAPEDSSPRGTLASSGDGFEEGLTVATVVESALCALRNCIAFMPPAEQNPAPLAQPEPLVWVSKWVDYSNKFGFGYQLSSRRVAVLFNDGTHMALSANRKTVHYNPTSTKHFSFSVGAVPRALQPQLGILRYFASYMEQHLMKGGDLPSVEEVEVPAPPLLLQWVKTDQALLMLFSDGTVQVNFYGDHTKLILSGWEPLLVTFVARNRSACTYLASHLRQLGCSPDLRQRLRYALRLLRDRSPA
T4 sequence (Q9NY57 whole entry): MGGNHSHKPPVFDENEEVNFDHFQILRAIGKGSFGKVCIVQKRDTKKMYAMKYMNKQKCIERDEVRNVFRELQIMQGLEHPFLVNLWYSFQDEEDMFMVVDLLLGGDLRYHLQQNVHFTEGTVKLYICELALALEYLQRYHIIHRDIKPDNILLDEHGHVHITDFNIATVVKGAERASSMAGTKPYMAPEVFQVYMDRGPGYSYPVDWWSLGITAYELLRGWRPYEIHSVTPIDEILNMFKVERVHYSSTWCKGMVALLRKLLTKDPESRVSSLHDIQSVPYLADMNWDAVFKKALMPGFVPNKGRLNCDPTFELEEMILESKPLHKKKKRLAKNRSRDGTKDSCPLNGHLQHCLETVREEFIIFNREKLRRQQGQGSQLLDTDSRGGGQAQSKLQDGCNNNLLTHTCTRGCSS
Chain of CDC2L5 (Q14004 whole entry): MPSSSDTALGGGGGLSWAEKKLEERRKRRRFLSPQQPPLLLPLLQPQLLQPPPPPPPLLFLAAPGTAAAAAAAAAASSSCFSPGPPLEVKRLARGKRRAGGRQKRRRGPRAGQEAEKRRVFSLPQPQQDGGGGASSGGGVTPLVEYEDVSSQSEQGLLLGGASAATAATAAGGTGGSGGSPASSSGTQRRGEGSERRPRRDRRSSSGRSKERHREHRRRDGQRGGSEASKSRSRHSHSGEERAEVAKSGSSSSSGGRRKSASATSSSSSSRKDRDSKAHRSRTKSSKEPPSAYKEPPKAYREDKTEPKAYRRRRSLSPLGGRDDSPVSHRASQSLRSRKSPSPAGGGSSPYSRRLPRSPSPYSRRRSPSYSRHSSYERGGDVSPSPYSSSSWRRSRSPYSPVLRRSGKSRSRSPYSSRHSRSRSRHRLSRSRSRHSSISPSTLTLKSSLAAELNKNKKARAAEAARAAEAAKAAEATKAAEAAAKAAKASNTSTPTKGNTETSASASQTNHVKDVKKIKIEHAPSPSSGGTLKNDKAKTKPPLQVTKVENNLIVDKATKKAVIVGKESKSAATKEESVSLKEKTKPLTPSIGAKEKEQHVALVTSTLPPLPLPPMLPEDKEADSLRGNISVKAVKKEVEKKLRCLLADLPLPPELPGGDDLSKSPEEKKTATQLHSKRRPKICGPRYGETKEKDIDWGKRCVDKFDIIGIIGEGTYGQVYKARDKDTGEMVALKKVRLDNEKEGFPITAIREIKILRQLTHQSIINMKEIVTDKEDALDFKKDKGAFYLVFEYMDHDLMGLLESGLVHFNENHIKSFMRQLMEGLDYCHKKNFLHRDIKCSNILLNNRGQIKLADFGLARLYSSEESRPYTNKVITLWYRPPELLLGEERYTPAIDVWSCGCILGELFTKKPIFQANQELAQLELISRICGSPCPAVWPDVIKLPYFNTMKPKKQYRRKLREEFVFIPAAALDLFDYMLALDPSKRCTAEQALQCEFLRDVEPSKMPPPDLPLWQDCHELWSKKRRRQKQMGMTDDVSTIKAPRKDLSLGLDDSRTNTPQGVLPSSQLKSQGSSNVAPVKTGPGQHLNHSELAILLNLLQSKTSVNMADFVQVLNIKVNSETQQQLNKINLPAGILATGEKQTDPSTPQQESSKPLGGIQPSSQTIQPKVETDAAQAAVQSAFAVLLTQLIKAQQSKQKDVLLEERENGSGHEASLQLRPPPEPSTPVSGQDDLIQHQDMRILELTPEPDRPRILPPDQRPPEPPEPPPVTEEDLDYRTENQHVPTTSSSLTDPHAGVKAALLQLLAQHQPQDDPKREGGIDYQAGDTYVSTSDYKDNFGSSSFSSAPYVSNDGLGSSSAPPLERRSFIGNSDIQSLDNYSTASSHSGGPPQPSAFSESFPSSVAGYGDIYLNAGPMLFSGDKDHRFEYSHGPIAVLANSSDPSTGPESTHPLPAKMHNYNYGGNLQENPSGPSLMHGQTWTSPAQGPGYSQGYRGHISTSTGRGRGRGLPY
T9 sequence (Q8TF76 whole entry): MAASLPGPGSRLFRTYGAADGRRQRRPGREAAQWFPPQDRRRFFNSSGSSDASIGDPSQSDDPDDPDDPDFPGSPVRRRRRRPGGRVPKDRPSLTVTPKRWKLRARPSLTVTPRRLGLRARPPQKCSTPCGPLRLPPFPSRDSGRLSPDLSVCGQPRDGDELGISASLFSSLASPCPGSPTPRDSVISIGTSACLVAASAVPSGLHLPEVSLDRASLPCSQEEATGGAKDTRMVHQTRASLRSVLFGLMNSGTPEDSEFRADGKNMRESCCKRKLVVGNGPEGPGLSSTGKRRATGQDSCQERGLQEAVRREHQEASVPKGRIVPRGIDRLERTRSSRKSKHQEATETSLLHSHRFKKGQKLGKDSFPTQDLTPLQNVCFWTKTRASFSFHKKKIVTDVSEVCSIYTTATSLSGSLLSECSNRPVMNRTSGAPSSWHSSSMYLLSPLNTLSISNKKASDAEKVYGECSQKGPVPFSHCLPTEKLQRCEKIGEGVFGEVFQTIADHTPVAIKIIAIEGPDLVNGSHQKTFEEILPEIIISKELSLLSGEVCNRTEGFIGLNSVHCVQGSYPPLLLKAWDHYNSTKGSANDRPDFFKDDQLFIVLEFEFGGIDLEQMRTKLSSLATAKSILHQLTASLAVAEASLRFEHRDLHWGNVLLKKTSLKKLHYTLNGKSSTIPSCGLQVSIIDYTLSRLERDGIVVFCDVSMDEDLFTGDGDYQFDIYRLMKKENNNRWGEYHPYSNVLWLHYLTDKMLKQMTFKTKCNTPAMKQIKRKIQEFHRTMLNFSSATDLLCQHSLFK

C=CC(=O)Nc1ccc(OC)c(Nc2cc(-c3[nH]c(CC)nc3-c3cccc(NC(=O)c4cccc5c4NC(=O)c4ccccc4N5)c3)ccn2)c1 [Compound 4, N-(3-(5-(2-((5-Acrylamido-2-methoxyphenyl)amino)pyridin-4-yl)-2-ethyl-1H-imidazol-4-yl)phenyl)-11-oxo-10,11-dihydro-5H-dibenzo[b,e][1,4]diazepine-9-carboxamide]
remaining binding at 1 µM (PRKG1): 100%
remaining binding at 1 µM (TGFBR1): 75%
remaining binding at 1 µM [1]: 100%
IC50 [2]: 1.8 ± 0.3 nM
remaining binding at 1 µM (PLK1): 50%
remaining binding at 1 µM (CAMKK1): 85%
remaining binding at 1 µM (CSF1R): 100%
remaining binding at 1 µM (MEK5): 41%
remaining binding at 1 µM (CDK5): 100%
remaining binding at 1 µM (YANK2): 63%
remaining binding at 1 µM (AURKB): 100%
remaining binding at 1 µM (MTOR): 100%
remaining binding at 1 µM (LATS2): 62%
remaining binding at 1 µM (p38-alpha): 46%
remaining binding at 1 µM (PLK3): 87%
remaining binding at 1 µM (CAMK2D): 88%
remaining binding at 1 µM (BMX): 66%
remaining binding at 1 µM (PKN1): 88%
remaining binding at 1 µM (BRK): 96%
remaining binding at 1 µM [3]: 100%
remaining binding at 1 µM (GSK3A): 65%
remaining binding at 1 µM (ZAK): 87%
remaining binding at 1 µM (HASPIN): 100%
remaining binding at 1 µM (FGFR2): 100%
remaining binding at 1 µM (CDC2L5): 74%
remaining binding at 1 µM (CAMK1): 81%

From patent publication US20260224588A1, “BENZODIAZEPINONE-DERIVED INHIBITORS OF EGFR AND HER2” (The Research Foundation for the State University of New York, priority 2023, published 2026)
